One data set deals with peritoneal exudate cells. Briefly: Inhibition of NO synthesis in IFNγ/LPS-stimulated peritoneal exudate cells (Griess reaction). To be noted: 48 hours; highest concentration MLA 1 mM, Polymethylarginine 400 uM. It counts as cell-based. As for the experimental part: First, peritoneal exudate cells were elicited by thioglycolate. These cells were then harvested and cultured in 96 well microtiter wells at 1×10^6 overnight in DMEM media with 5% FCS. Media was then replaced with DMEM containing 50 Units/ml of IFNγ and 100 ng/ml bacterial lipopolysaccharide. Serial dilutions of either N^G-monomethy-L-larginine (MLA) or Polymethylarginine (poly-MLA 7-mer) were then added to experimental wells. The highest concentration of MLA was 1 mM and of Polymethylarginine was 400 uM.
The cultures were then incubated for 48 hours and culture supernatants were assayed for the NO metabolite nitrate using the Griess reaction after nitrate reduction.

The test system of data set [1] is C57BL/6 mice. Put plainly: Systolic blood pressure by tail cuff method in IL-2 treated mice. The format is in vivo. As for the experimental part:
Systolic blood pressure was measured via tail cuff method (Stoelting, Wood Dell, Ill.) using PowerLab digital signal transducer (AD instruments, Mountain View, Calif.). […] The lower limit of blood pressure detectable using this instrumentation is about 40 mm of Hg. This value of blood pressure was assigned whenever no detectable value could be obtained.
(§1) 1400 W was dissolved at a concentration of 1M in sterile PBS and administered via continuous subcutaneous infusion by Alzet mini osmotic pumps (Model 2001, Alzet Corporation, Cupertino, Calif.). Each pump contained 225 μL of solution that released a constant volume of 28 μL/day, resulting in a calculated delivery of 7 mg 1400 W/mouse/day.
(§2) MLA was dissolved in sterile ultra-filtered water at a concentration of 3.38M and loaded into pre-equilibrated osmotic pumps containing 225 μL of solution that released a constant volume of 28 μL/day, resulting in a calculated delivery of 18.5 mg MLA/mouse/day.

In data set [2] the test system is C57BL/6 mice. Briefly: VLS evaluation: [125I]-labeled albumin accumulation in peritoneal fluid of IL-2 treated mice. The format is in vivo. Particulars: for [125I] labeled albumin retention in peritoneal fluid: MLA 18.5 mg/mouse/day s.c. during IL-2 treatment; for Effect on IL-2 induced radio-albumin accumulation in peritoneal fluid / VLS: given with IL-2, M40403: iNOS WT or iNOS−/− mice, 1400 W: IL-2 treated mice. As for the experimental part: Peritoneal fluid was collected using blotting paper. Liver, spleen, intestines, kidneys, lungs and heart were also excised and analyzed for [^125l]-albumin accumulation. Data was expressed as percentage of radiolabeled albumin recovered from each tissue with the total amount recovered from each animal. This form of analysis minimizes differences induced by variability in injection technique.
as §1, §2

Data set [3] can be described thus: Retention of modified NOS inhibitors in the vasculature. Particulars: due to their size.
Where [4] appears, read: iNOS−/− mice, given together with IL-2.

On to `CNC(=N)NCCC[C@H](N)C(=O)O` [MLA, N^G-monomethyl-L-arginine], for which the “Effect of serial dilutions on NO production” value in the data set with peritoneal exudate cells is reported as “blocked NO production”. Moreover, in the data set with C57BL/6 mice [1] (setting [4]), the Systolic blood pressure is recorded as 80±10 mm of Hg. The “[125I] labeled albumin retention in peritoneal fluid” value in the data set on C57BL/6 mice [2] (iNOS WT mice) is 0.562±0.24%; in the data set with C57BL/6 mice [2] (iNOS−/− mice), 1.66±0.06%.

Regarding `[Cl-].[Cl-].[Mn+2].c1cc2nc(c1)CN[C@@H]1CCCC[C@H]1NCCN[C@@H]1CCCC[C@H]1NC2` [M40403], the Systolic blood pressure in the data set with C57BL/6 mice [1] (setting [4]) is recorded as 85±5 mm of Hg. Moreover, in the data set on C57BL/6 mice [2], the “Effect on IL-2 induced radio-albumin accumulation in peritoneal fluid / VLS” value is “did not reverse”.

Take `CNC(=N)NCCC[C@H](NC(=O)[C@H](CCCNC(=N)NC)NC(=O)[C@H](CCCNC(=N)NC)NC(=O)[C@H](CCCNC(=N)NC)NC(=O)[C@H](CCCNC(=N)NC)NC(=O)[C@H](CCCNC(=N)NC)NC(=O)[C@@H](N)CCCNC(=N)NC)C(=O)O` [poly-MLA, (N^G-mono-methyl-L-arginine)^7]: in data set [3], the “Retention in the vasculature” value is listed as “retained in the vasculature”.

Consider `CC(=N)NCc1cccc(CN)c1` [1400 W], for which the Systolic blood pressure in the data set on C57BL/6 mice [1] (mice treated with IL-2 plus 1400 W, continuous s.c. infusion 7 mg/mouse/day) is listed as 45±7 mm of Hg. In addition, in the data set on C57BL/6 mice [2], the “Effect on IL-2 induced radio-albumin accumulation in peritoneal fluid / VLS” value is on record as “did not inhibit”.

The values above are taken from patent US20100158857A1, “Compositions and methods for the inhibition of endothelial nitric oxide synthase activity” (University Of utah Research Foundation, priority 2006, published 2010).
